Where only a bound is given, the exact number is not on record here.

Test [1] deals with T1, Thyroid hormone receptor beta (Rattus norvegicus, UniProt P18113).
T1 sequence (P18113 whole entry): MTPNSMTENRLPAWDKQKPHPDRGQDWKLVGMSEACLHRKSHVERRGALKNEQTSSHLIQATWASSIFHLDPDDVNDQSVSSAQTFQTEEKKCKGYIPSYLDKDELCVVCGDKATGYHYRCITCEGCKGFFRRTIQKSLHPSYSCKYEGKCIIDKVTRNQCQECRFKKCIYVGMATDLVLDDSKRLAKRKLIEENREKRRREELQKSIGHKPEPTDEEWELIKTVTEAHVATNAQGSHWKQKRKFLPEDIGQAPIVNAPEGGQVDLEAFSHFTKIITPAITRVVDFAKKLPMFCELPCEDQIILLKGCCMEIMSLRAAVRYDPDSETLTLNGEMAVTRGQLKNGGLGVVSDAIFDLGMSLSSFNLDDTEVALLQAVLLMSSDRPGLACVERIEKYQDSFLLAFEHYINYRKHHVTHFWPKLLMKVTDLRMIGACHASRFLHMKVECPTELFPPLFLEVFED

Test [2] has as its target T2, Mineralocorticoid receptor (Rattus norvegicus, UniProt P22199).
T2 sequence (P22199 whole entry): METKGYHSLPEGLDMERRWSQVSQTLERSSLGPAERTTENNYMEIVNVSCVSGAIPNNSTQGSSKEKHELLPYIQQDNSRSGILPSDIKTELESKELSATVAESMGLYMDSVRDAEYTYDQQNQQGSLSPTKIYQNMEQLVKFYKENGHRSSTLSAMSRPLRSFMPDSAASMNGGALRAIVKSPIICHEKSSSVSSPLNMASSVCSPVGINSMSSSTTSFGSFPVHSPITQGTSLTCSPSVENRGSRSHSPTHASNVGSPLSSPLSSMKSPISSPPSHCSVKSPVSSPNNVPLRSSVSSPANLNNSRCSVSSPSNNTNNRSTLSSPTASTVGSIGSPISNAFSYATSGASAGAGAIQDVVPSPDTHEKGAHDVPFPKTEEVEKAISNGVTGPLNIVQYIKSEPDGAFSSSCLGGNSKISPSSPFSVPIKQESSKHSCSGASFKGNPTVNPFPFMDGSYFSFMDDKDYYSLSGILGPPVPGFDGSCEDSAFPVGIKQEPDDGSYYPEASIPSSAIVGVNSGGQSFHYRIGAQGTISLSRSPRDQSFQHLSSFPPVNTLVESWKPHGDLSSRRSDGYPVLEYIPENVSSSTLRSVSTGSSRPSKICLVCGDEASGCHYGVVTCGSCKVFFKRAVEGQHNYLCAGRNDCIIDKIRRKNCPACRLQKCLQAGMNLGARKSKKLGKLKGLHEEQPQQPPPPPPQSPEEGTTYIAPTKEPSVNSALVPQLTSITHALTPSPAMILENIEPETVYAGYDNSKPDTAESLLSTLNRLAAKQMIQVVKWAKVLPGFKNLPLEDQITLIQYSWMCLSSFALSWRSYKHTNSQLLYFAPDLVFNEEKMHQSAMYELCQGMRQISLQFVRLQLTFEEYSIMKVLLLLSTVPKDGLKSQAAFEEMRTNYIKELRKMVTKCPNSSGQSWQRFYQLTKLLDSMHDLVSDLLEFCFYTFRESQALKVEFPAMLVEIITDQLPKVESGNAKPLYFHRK

Another test concerns the target T3, Estrogen receptor (Rattus norvegicus, UniProt P06211).
T3 sequence (P06211 whole entry): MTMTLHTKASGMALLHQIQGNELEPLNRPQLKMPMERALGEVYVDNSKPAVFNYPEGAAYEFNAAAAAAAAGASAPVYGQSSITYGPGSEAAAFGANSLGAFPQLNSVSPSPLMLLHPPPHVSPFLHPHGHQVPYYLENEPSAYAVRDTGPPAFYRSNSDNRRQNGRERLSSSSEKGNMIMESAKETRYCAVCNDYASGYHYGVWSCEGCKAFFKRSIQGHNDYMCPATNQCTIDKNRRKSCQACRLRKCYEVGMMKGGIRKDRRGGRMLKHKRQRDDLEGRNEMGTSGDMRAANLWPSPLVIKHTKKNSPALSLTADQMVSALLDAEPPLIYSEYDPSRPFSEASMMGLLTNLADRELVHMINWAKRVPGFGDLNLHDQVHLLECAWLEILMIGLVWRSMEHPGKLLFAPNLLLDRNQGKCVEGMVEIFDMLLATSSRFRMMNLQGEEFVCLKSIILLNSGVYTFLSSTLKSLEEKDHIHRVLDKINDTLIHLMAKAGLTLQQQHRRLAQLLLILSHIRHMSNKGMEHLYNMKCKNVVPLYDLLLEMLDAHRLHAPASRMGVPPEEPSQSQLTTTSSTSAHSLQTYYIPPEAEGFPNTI

Another test addresses T4, Glucocorticoid receptor (Rattus norvegicus, UniProt P06536).
T4 sequence (P06536 whole entry): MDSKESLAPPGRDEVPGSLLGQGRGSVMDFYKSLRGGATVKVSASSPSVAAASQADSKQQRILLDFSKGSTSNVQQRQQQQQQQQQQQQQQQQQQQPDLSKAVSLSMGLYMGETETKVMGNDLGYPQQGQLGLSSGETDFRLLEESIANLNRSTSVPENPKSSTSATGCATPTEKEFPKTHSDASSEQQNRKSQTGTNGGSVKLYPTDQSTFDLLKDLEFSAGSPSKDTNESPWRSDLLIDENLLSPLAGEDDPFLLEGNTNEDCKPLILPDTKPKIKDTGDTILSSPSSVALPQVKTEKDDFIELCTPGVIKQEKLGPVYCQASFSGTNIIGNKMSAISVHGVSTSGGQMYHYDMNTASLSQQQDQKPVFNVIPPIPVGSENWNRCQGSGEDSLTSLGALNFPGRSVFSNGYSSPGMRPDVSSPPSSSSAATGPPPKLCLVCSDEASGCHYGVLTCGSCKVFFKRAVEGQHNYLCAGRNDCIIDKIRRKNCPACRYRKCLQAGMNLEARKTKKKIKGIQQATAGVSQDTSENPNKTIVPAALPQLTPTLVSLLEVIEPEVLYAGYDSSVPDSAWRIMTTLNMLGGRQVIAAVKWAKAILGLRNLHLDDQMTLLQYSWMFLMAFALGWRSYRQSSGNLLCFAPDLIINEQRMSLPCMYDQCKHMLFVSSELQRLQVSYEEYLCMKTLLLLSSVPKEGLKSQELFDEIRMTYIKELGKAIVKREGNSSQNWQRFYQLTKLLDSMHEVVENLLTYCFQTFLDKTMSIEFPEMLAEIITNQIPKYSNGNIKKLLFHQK

The target of test [3] is Progesterone receptor (Homo sapiens) (UniProt P06401).
Chain of Progesterone receptor (Homo sapiens) (P06401 whole entry, looked up): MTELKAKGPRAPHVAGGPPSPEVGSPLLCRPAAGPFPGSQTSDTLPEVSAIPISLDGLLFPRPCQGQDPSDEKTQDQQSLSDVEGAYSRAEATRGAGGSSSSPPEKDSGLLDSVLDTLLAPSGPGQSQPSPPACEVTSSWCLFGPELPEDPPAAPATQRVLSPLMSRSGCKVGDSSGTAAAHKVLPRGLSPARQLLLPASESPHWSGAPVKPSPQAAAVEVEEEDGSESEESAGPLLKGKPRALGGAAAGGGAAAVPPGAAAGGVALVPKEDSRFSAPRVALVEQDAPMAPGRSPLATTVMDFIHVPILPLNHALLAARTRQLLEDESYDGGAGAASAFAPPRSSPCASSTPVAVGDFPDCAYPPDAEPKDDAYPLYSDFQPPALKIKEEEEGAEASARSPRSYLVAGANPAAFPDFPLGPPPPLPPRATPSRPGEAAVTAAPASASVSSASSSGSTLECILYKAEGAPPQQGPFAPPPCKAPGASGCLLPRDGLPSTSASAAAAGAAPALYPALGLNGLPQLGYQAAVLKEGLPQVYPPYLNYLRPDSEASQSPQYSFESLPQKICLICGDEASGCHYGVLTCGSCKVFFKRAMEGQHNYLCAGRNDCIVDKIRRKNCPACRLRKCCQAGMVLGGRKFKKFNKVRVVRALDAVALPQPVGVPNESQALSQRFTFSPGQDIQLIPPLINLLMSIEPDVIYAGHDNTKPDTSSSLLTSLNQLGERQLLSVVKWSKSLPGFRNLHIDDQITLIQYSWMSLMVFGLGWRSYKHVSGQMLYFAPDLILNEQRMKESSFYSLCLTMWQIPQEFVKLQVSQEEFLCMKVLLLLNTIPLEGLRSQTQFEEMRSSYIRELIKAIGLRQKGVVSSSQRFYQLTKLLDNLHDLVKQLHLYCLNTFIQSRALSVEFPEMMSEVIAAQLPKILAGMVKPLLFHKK
Another test addresses Estrogen receptor beta (Homo sapiens, UniProt Q92731).
Test [4] concerns the target T5, Thyroid hormone receptor alpha (Rattus norvegicus, UniProt P63059).
T5 sequence (P63059 whole entry): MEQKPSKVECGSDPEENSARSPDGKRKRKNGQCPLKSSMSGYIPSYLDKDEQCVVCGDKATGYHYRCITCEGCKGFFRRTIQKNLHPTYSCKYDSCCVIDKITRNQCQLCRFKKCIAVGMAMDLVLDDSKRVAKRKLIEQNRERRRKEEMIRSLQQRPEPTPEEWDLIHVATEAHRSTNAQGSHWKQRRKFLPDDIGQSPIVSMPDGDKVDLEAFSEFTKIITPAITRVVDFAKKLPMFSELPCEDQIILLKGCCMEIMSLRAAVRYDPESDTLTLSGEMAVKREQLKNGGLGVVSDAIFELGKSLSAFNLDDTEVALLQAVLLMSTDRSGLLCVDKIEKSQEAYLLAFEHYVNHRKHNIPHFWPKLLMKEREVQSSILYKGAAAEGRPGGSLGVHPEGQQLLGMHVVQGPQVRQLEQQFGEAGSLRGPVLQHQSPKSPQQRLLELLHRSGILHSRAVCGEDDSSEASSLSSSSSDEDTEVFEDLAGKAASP

Chain of Estrogen receptor beta (Q92731 whole entry): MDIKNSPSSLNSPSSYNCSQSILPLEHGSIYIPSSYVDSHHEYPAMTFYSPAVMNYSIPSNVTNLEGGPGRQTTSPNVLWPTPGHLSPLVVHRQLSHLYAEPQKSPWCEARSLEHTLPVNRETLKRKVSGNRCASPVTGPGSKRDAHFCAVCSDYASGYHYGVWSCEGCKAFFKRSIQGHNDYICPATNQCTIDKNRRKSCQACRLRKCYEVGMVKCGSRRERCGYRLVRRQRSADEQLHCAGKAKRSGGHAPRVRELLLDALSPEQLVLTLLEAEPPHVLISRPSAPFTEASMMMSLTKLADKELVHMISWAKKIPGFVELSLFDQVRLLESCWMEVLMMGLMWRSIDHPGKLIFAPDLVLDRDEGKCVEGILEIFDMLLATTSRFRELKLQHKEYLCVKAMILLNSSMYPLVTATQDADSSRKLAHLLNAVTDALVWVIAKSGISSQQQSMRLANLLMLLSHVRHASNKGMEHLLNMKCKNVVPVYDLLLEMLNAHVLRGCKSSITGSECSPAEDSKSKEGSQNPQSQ

As to `CC#C[C@]1(O)CC[C@H]2[C@@H]3CCC4=CC(=O)CCC4=C3[C@@H](c3ccc(N(C)CCO[C@H]4CCC5C(C4)C[C@@H](O)C4C5C[C@H](O)C5C(C(C)CCC(=O)O)CCC45)cc3)C[C@@]21C` (stereo partly specified) [A-348441], the Ki was determined as 1500 nM in test [1]; 440 nM in test [2]; 12 nM at Estrogen receptor; 0.27 nM on Glucocorticoid receptor; 0.81 nM in test [3]; 110 nM at Estrogen receptor beta. In addition, in test [4], the Ki amounted to 670 nM.
On to `CC#C[C@]1(O)CC[C@H]2[C@@H]3CCC4=CC(=O)CCC4=C3[C@@H](c3ccc(N(C)C)cc3)C[C@@]21C` [CAS_84371-65-3], for which the Ki in test [1] is > 2250 nM; in test [2] it was 640 nM; on Estrogen receptor, > 200 nM; in test [4] it was > 1250 nM.
